Inhibition and IC50 data for one compound are collected here from article PMC10001950 (International Journal of Molecular Sciences, 2023).

The target of assay [1] is T1, BoNT/A LC (Clostridium botulinum, UniProt P0DPI0). The experiment in a line: biochemical. Particulars: read-out: inhibited BoNT/A LC activity.
Assay [2] concerns the target T1, BoNT/A LC. Put plainly: biochemical. It counts as biochemical.

T1 sequence (P0DPI0 2-448 limits assumed): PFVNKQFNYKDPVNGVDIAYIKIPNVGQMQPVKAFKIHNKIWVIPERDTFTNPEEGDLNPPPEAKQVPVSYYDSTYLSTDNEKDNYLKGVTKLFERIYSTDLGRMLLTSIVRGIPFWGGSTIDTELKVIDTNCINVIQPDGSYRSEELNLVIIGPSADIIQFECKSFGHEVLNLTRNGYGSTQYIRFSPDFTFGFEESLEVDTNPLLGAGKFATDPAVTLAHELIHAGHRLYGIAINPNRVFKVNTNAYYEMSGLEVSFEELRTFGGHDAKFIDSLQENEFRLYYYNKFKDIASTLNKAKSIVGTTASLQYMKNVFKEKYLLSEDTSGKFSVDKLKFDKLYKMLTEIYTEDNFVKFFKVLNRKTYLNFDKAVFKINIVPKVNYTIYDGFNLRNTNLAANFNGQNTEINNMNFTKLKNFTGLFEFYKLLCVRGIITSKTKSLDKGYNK

By IC50 is commonly meant the point on the concentration scale where inhibition reaches its midpoint. A high value points to lower potency. As for `O=C(O)C1CNCCN(Cc2cc(=O)n3cccc(O)c3n2)C1` (centres unmarked) [Compound 1], on BoNT/A LC [1], the inhibition at 40 µM is above 90%. On BoNT/A LC [2], this compound displayed an IC50 of 7.4 ± 0.5 µM.
